{"source": "patent US20190343908A1", "about": "“Therapeutic Combination for the Treatment of Cancer” (Nerium Biotechnology Inc., priority 2011, published 2019)", "key": {"[1]": {"tested_on": "COR-L 105 (non-small cell lung carcinoma)", "test": "Crystal Violet viability assay, COR-L 105", "format": "cell-based, human", "design": "key to CVE Average: absorbance at 570 nm (crystal violet), background wavelength subtracted", "details": "for CVE Average 24 h / CVE Average 48 h / CVE Average 72 h: COR-L 105, Run 3", "description": "(§1) Three different viability assays were chosen to complement each other and yielded results dependent on concentration and cell line: the Methyl Tetrazolium dye assay, the Sulforhodamine B fluorescent dye assay, and the Crystal Violet dye assay.\n(§2) The Sulforhodamine B and Crystal Violet assays provide information about protein and were used to complement the Methyl-Tetrazolium dye assay. […] It is used for the quantification of cellular proteins of cultured cells. The assay using Crystal Violet, a dye that binds electrostatically to proteins and stains DNA, provides a reliable, simple assay for measuring viability of cells.\n(§3) The Methyl Tetrazolium, Sulforhodamine B, and Crystal Violet assays were used to assess cell viabilities. The incubation times were 24 hours, 48 hours, and 72 hours. The Nerium oleander extract Anvirzel™ (a hot water extract of oleander obtained from Salud Integral, Honduras) was tested in concentrations ranging from 0.01 ng/mL to 10 ng/mL.\n(§4) Cells were detached by trypsinization (Trypsin-0.25% EDTA, Invitrogen, 25200-072) during the logarithmic phase of culture growth and plated in 96-well plates (18.000 cells/well) (Corning, Costar 359) in a final volume of 200 μl of medium per well. […] The absorbance was measured after 24 hours, 48 hours, and 72 hours of incubation.\nFor the Crystal Violet assay, the medium was removed from the 96-well plates, the plates rinsed with PBS (Sigma, P3813) and then the cells were […] by the addition of 10% formalin (MERCK, 1.04003.2500) for 20 minutes at RT. Formalin was removed and 0.25% aqueous crystal violet (Sigma, HT901), dissolved in water, was added for 10 minutes at RT. Unbound Crystal Violet was rinsed by washing with water and finally 33% acetic acid was added to dissolve the dye.\n(§5) The optical density of each plate was measured on a μQuant spectrophotometer and the data were analyzed with Gen5 software (μQuant Biomolecular Spectrophotometer MQX200 and Gen5™ Microplate Data Collection & Analysis software, BioTek® Instruments. Inc, April 2008). Absorbance was measured at 570 nm for all assays and a second wavelength was measured in order to subtract noise. For the Methyl-Tetrazolium assay this second wavelength was 630 nm and for the Sulforhodamine B and Crystal Violet assays it was 690 nm."}, "[2]": {"tested_on": "HT55 (colorectal cancer)", "test": "Sulforhodamine B viability assay, HT55", "format": "cell-based, human", "design": "key: absorbance (optical density) at 570 nm, second wavelength subtracted", "description": "as §1, §2, §3, §4\nFor the Sulforhodamine B assay, 96-well plates were fixed by 10% trichloroacetic acid (Fluka, 91228) and were incubated at 4° C. for 1 hour. Afterwards, plates were rinsed with water and cells were stained with 0.4% Sulforhodamine B (Sigma, 341738), dissolved in 1% acetic acid (Carlo Ebra, 401422) for 15 minutes at room temperature (RT). The unbound stain was washed twice with 1% acetic acid. Finally, 10 mM Tris Buffer pH 10.5 (Sigma, T6791) was added to dissolve the dye.\nas §5"}}, "data": [{"smiles": "N.N.[Cl][Pt][Cl]", "note": "[cisplatin]", "values": [{"measurement": "CVE Average 24 h", "setting": "[1]; 0.1 μg/ml CDDP", "value": 0.388}, {"measurement": "CVE Average 48 h", "setting": "[1]; 0.1 μg/ml CDDP", "value": 0.709}, {"measurement": "CVE Average 72 h", "setting": "[1]; 0.1 μg/ml CDDP", "value": 0.457}, {"measurement": "CVE Average 24 h", "setting": "[1]; 1 μg/ml CDDP", "value": 0.363}, {"measurement": "CVE Average 48 h", "setting": "[1]; 1 μg/ml CDDP", "value": 0.517}, {"measurement": "CVE Average 72 h", "setting": "[1]; 1 μg/ml CDDP", "value": 0.263}, {"measurement": "CVE Average 24 h", "setting": "[1]; 10 μg/ml CDDP", "value": 0.358}, {"measurement": "CVE Average 48 h", "setting": "[1]; 10 μg/ml CDDP", "value": 0.653}, {"measurement": "CVE Average 72 h", "setting": "[1]; 10 μg/ml CDDP", "value": 0.387}, {"measurement": "CVE Average 24 h", "setting": "[1]; 100 μg/ml CDDP", "value": 0.282}, {"measurement": "CVE Average 48 h", "setting": "[1]; 100 μg/ml CDDP", "value": 0.341}, {"measurement": "CVE Average 72 h", "setting": "[1]; 100 μg/ml CDDP", "value": 0.389}, {"measurement": "CVE Average", "setting": "[1]; Run 1, 24 h, 0.1 μg/ml CDDP", "value": 0.413}, {"measurement": "CVE Average", "setting": "[1]; Run 1, 24 h, 1 μg/ml CDDP", "value": 0.431}, {"measurement": "CVE Average", "setting": "[1]; Run 1, 24 h, 10 μg/ml CDDP", "value": 0.484}, {"measurement": "CVE Average", "setting": "[1]; Run 1, 24 h, 100 μg/ml CDDP", "value": 0.307}, {"measurement": "CVE Average", "setting": "[1]; Run 1, 48 h, 0.1 μg/ml CDDP", "value": 0.599}, {"measurement": "CVE Average", "setting": "[1]; Run 1, 48 h, 1 μg/ml CDDP", "value": 0.643}, {"measurement": "CVE Average", "setting": "[1]; Run 1, 48 h, 10 μg/ml CDDP", "value": 0.632}, {"measurement": "CVE Average", "setting": "[1]; Run 1, 48 h, 100 μg/ml CDDP", "value": 0.379}, {"measurement": "CVE Average", "setting": "[1]; Run 1, 72 h, 0.1 μg/ml CDDP", "value": 0.298}, {"measurement": "CVE Average", "setting": "[1]; Run 1, 72 h, 1 μg/ml CDDP", "value": 0.23}, {"measurement": "CVE Average", "setting": "[1]; Run 1, 72 h, 10 μg/ml CDDP", "value": 0.216}, {"measurement": "CVE Average", "setting": "[1]; Run 1, 72 h, 100 μg/ml CDDP", "value": 0.244}, {"measurement": "CVE Average", "setting": "[1]; Run 2, 24 h, 0.1 μg/ml CDDP", "value": 0.388}, {"measurement": "CVE Average", "setting": "[1]; Run 2, 24 h, 1 μg/ml CDDP", "value": 0.363}, {"measurement": "CVE Average", "setting": "[1]; Run 2, 24 h, 10 μg/ml CDDP", "value": 0.358}, {"measurement": "CVE Average", "setting": "[1]; Run 2, 24 h, 100 μg/ml CDDP", "value": 0.282}, {"measurement": "CVE Average", "setting": "[1]; Run 2, 48 h, 0.1 μg/ml CDDP", "value": 0.709}, {"measurement": "CVE Average", "setting": "[1]; Run 2, 48 h, 1 μg/ml CDDP", "value": 0.517}, {"measurement": "CVE Average", "setting": "[1]; Run 2, 48 h, 10 μg/ml CDDP", "value": 0.653}, {"measurement": "CVE Average", "setting": "[1]; Run 2, 48 h, 100 μg/ml CDDP", "value": 0.341}, {"measurement": "CVE Average", "setting": "[1]; Run 2, 72 h, 0.1 μg/ml CDDP", "value": 0.457}, {"measurement": "CVE Average", "setting": "[1]; Run 2, 72 h, 1 μg/ml CDDP", "value": 0.263}, {"measurement": "CVE Average", "setting": "[1]; Run 2, 72 h, 10 μg/ml CDDP", "value": 0.387}, {"measurement": "CVE Average", "setting": "[1]; Run 2, 72 h, 100 μg/ml CDDP", "value": 0.389}, {"measurement": "SRB Average", "setting": "[2]; HT55, Run 1, 24 h, 0.1 μg/ml CDDP", "value": 2.17}, {"measurement": "SRB Average", "setting": "[2]; HT55, Run 1, 24 h, 1 μg/ml CDDP", "value": 2.229}, {"measurement": "SRB Average", "setting": "[2]; HT55, Run 1, 24 h, 10 μg/ml CDDP", "value": 2.246}, {"measurement": "SRB Average", "setting": "[2]; HT55, Run 1, 24 h, 100 μg/ml CDDP", "value": 2.052}, {"measurement": "SRB Average", "setting": "[2]; HT55, Run 1, 48 h, 0.1 μg/ml CDDP", "value": 2.437}, {"measurement": "SRB Average", "setting": "[2]; HT55, Run 1, 48 h, 1 μg/ml CDDP", "value": 2.238}, {"measurement": "SRB Average", "setting": "[2]; HT55, Run 1, 48 h, 10 μg/ml CDDP", "value": 2}, {"measurement": "SRB Average", "setting": "[2]; HT55, Run 1, 48 h, 100 μg/ml CDDP", "value": 2.009}, {"measurement": "SRB Average", "setting": "[2]; HT55, Run 1, 72 h, 0.1 μg/ml CDDP", "value": 2.413}, {"measurement": "SRB Average", "setting": "[2]; HT55, Run 1, 72 h, 1 μg/ml CDDP", "value": 2.434}, {"measurement": "SRB Average", "setting": "[2]; HT55, Run 1, 72 h, 10 μg/ml CDDP", "value": 2.222}, {"measurement": "SRB Average", "setting": "[2]; HT55, Run 1, 72 h, 100 μg/ml CDDP", "value": 1.875}, {"measurement": "SRB Average", "setting": "[2]; HT55 Run 2, 24 h, 0.1 μg/ml CDDP", "value": 2.445}, {"measurement": "SRB Average", "setting": "[2]; HT55 Run 2, 24 h, 1 μg/ml CDDP", "value": 2.327}, {"measurement": "SRB Average", "setting": "[2]; HT55 Run 2, 24 h, 10 μg/ml CDDP", "value": 2.387}, {"measurement": "SRB Average", "setting": "[2]; HT55 Run 2, 24 h, 100 μg/ml CDDP", "value": 2.766}, {"measurement": "SRB Average", "setting": "[2]; HT55 Run 2, 48 h, 0.1 μg/ml CDDP", "value": 2.408}, {"measurement": "SRB Average", "setting": "[2]; HT55 Run 2, 48 h, 1 μg/ml CDDP", "value": 2.098}, {"measurement": "SRB Average", "setting": "[2]; HT55 Run 2, 48 h, 10 μg/ml CDDP", "value": 1.814}, {"measurement": "SRB Average", "setting": "[2]; HT55 Run 2, 48 h, 100 μg/ml CDDP", "value": 1.508}, {"measurement": "SRB Average", "setting": "[2]; HT55 Run 2, 72 h, 0.1 μg/ml CDDP", "value": 2.564}, {"measurement": "SRB Average", "setting": "[2]; HT55 Run 2, 72 h, 1 μg/ml CDDP", "value": 1.804}, {"measurement": "SRB Average", "setting": "[2]; HT55 Run 2, 72 h, 10 μg/ml CDDP", "value": 1.74}, {"measurement": "SRB Average", "setting": "[2]; HT55 Run 2, 72 h, 100 μg/ml CDDP", "value": 2.019}, {"measurement": "SRB Average", "setting": "[2]; HT55 Run 3, 24 h, 0.1 μg/ml CDDP", "value": 2.101}, {"measurement": "SRB Average", "setting": "[2]; HT55 Run 3, 24 h, 1 μg/ml CDDP", "value": 1.801}, {"measurement": "SRB Average", "setting": "[2]; HT55 Run 3, 24 h, 10 μg/ml CDDP", "value": 2.557}, {"measurement": "SRB Average", "setting": "[2]; HT55 Run 3, 24 h, 100 μg/ml CDDP", "value": 2.038}, {"measurement": "SRB Average", "setting": "[2]; HT55 Run 3, 48 h, 0.1 μg/ml CDDP", "value": 2.648}, {"measurement": "SRB Average", "setting": "[2]; HT55 Run 3, 48 h, 1 μg/ml CDDP", "value": 2.071}, {"measurement": "SRB Average", "setting": "[2]; HT55 Run 3, 48 h, 10 μg/ml CDDP", "value": 2.649}, {"measurement": "SRB Average", "setting": "[2]; HT55 Run 3, 48 h, 100 μg/ml CDDP", "value": 1.727}, {"measurement": "SRB Average", "setting": "[2]; HT55 Run 3, 72 h, 0.1 μg/ml CDDP", "value": 2.177}, {"measurement": "SRB Average", "setting": "[2]; HT55 Run 3, 72 h, 1 μg/ml CDDP", "value": 1.424}, {"measurement": "SRB Average", "setting": "[2]; HT55 Run 3, 72 h, 10 μg/ml CDDP", "value": 2.784}, {"measurement": "SRB Average", "setting": "[2]; HT55 Run 3, 72 h, 100 μg/ml CDDP", "value": 1.831}]}]}
